From article PMC8903829 (eLife, 2022)
Read-outs that look alike come from different tables or passages of the source.

Columns and labels:
wild-type mice (CF-1) = assay: DC-Maximal electroshock seizure assay (DC-MES); format: in vivo, mouse
Method: (§1) Phenytoin was formulated in physiologic saline and was administered intraperitoneally (i.p.) using a 25-gauge needle at a dose volume of 10 mL/kg. All compounds were administered 2 hr prior to electrical seizure induction for all seizure models employed in this study.
(§2) The maximal electroshock seizure (MES) assay has been extensively used in the search for anticonvulsant substances ([Löscher et al., 1991]; [Piredda et al., 1985]; [White et al., 1995]). The MES assay is sensitive to nonselective NaV inhibitors. It is considered a model for generalized tonic-clonic (GTC) seizures and provides an assessment of seizure spread. Briefly, an electroshock of direct current (DC) was delivered by corneal electrodes (Electro Convulsive Therapy Unit 57,800 from Ugo Basile). The parameters of stimulation were different between mice and rats. In CF1 mice aged 9–12 weeks, a direct current of 50 mA (60 Hz) was delivered for 0.2 s (pulse width of 0.5ms), whereas in Sprague Dawley (SD) rats aged 5–6 weeks, a direct current of 150 mA (60 Hz) was delivered for 0.3 s (pulse width of 0.5ms). Immediately prior to the electroshock, the animals’ eyes were anesthetized with a drop of Alcaine (0.5% proparacaine hydrochloride).
(§3) An animal was considered protected in the assay in the absence of a GTC with hindlimb extension and is then scored ‘0’. An animal displaying GTC with hindlimb extension was considered not protected and is then scored ‘1’. The experimenter scoring the seizure behavior was blinded to the treatment.

[1] = test system: wild-type Sprague Dawley rats; assay: DC-Maximal electroshock seizure assay (DC-MES); format: in vivo, rat
Method: as §1, §2, §3

Sprague Dawley rats = assay: Observation of potential adverse behavior (behavioral signs) in the rat DC-MES studies; format: in vivo; details: rat
Method: Animals were observed by the scientist(s) responsible for dosing for the first 30 min after dosing for and again at the time of assay (2 hr post dose) for signs of abnormal behavior.

[2] = Bioanalytical assessment of plasma and brain concentrations after 6 Hz assay; format: in vivo, mouse; details: mouse, oral, SCN8A mouse 6HZ
Method: Approximately 0.5 mL of blood was collected from each mouse at the end of the assay via cardiac puncture under deep anesthesia. The blood samples were collected in a syringe and transferred to tubes containing EDTA. Blood was stored at 4 °C until centrifuged within 30 min of collection. Plasma was harvested and placed on dry ice and stored in a freezer set to maintain a temperature of –70°C to –80°C until analysis. Brains were harvested immediately after blood collection and placed on dry ice prior to storage in a freezer set to maintain a temperature of –70°C to –80°C until analysis.
Extraction of plasma samples was carried out by protein precipitation using acetonitrile. Plasma samples (50 µL) were mixed with 50 µL of internal standard (IS) solution in water followed by addition of 10 µL of concentrated ortho-phosphoric acid and 200 µL of acetonitrile. Samples were vortexed for 30 seconds, centrifuged at 13,000 rpm for 20 min, decanted in to a 96-well plate, and further centrifuged at 4000 rpm for 20 min. The samples were analyzed by UHPLC-ESI-MS/MS as described below.
Prior to extraction, pre-weighed whole brains were homogenized in 1:1 acetonitrile/water (v/v) (4 mL per mouse brain) using an IKA T18 ULTRA-TURRAX Homogenizer at the setting of 4 for approximately 2 min. The homogenate was centrifuged at 13,000 rpm for 20 min and 50 µL of the supernatant were treated exactly as described above for plasma samples. […]
Samples were analyzed by UHPLC-ESI MS/MS using a TQ-5500 Sciex triple quadrupole mass spectrometer equipped with a Shimadzu Nexera UHPLC pump and auto-sampler system using an ACE C18 PFP, 2.50 × 50 mm, 1.7 µm particle size column and gradient elution consisting of solvent A (0.1% formic acid in water) and solvent B (0.1% formic acid in acetonitrile) starting at 20% B from 0 min to 0.4 min and then increased to 100% B from 0.4 min to 0.6 min. At 2.0 min, the mobile phase composition was switched back to […] for 1 min. The flow rate used throughout the experiment was […]. […] The UHPLC-ESI MS/MS system was controlled by Analyst 1.6.
Sample concentrations were determined using a linear calibration function, weighted 1 /X, generated by the regression of analyte to IS peak area ratios in the standard samples to their respective concentrations. Acceptance criteria for the analytical run required that the back calculated values of the standards and the QC samples fell within ±20% of their nominal values, except for the lowest standard or lower limit of quantitation (LLOQ), for which the acceptance criterion was ±25%. At least 6 out of 12 standard points had to show back-calculated values within ±20% of their nominal concentrations for the calibration to be accepted. At least three QC samples, one at each level, had to show back-calculated values within ±20% of their nominal concentrations for the whole sample batch to be valid.

[3] = Bioanalytical assessment of plasma and brain concentrations after rat DC-MES assay; format: in vivo; details: rat, oral, Rat DC-MES

NC(=O)N1c2ccccc2C=Cc2ccccc21 [carbamazepine, Carbamazepine, reference compound]
WT mouse DC-MES acute Fraction of animals seizing (wild-type mice (CF-1); Study17131, 10 mg/kg): 0.7143 | WT mouse DC-MES acute Fraction of animals seizing (wild-type mice (CF-1); Study17131, 30 mg/kg): 0.4286 | WT mouse DC-MES acute Fraction of animals seizing (wild-type mice (CF-1); Study17131, 100 mg/kg): 0.1429 | WT mouse DC-MES acute Fraction of animals seizing (wild-type mice (CF-1); Study17134, 10 mg/kg): 0.8571 | WT mouse DC-MES acute Fraction of animals seizing (wild-type mice (CF-1); Study17134, 30 mg/kg): 0.4286 | EC50 (wild-type mice (CF-1); WT mouse DC-MES, 2 hr post dose (oral; phenytoin i.p.), read-out: brain EC50): 44 µM | Rat DC-MES Fraction of animals seizing ([1]; Study18058, 10 mg/kg): 0.857 | Rat DC-MES Fraction of animals seizing ([1]; Study18058, 20 mg/kg): 0.714 | Rat DC-MES Fraction of animals seizing ([1]; Study18068, 30 mg/kg): 0.571 | Rat DC-MES Fraction of animals seizing ([1]; Study18068, 100 mg/kg): 0.428 | Rat DC-MES Fraction of animals seizing ([1]; Study18085, 300 mg/kg): 0.285 | EC50 ([1]; WT rat DC-MES (oral; phenytoin i.p.), read-out: plasma EC50): 30 µM | EC50 ([1]; WT rat DC-MES, 2 hr post dose (oral; phenytoin i.p.), read-out: brain EC50): 36 µM | minimal plasma concentration provoking behavioral signs (BSC) (Sprague Dawley rats): 110 µM | concentration at 2 h ([2]; Scn8a N1768D/+, brain, 3 mg/kg, Study15064, 3 mg/kg, read-out: Mean [Brain]): 0.943 µM | concentration at 2 h ([2]; Scn8a N1768D/+, brain, 3 mg/kg, Study16152, 3 mg/kg, read-out: Mean [Brain]): 2.7 µM | concentration at 2 h ([2]; Scn8a N1768D/+, brain, 3 mg/kg, Study16162, 3 mg/kg, read-out: Mean [Brain]): 4.89 µM | concentration at 2 h ([2]; Scn8a N1768D/+, brain, 10 mg/kg, Study15064, 10 mg/kg, read-out: Mean [Brain]): 2.24 µM | concentration at 2 h ([2]; Scn8a N1768D/+, brain, 10 mg/kg, Study16152, 10 mg/kg, read-out: Mean [Brain]): 11.4 µM | concentration at 2 h ([2]; Scn8a N1768D/+, brain, 10 mg/kg, Study16162, 10 mg/kg, read-out: Mean [Brain]): 15.7 µM | concentration at 2 h ([2]; Scn8a N1768D/+, brain, 30 mg/kg, Study16152, 30 mg/kg, read-out: Mean [Brain]): 40.7 µM | concentration at 2 h ([2]; Scn8a N1768D/+, brain, 100 mg/kg, Study16162, 100 mg/kg, read-out: Mean [Brain]): 130 µM | concentration at 2 h ([2]; Scn8a N1768D/+, plasma, 10 mg/kg, Study16162, 10 mg/kg, read-out: Mean [Palsma]): 20.7 µM | concentration at 2 h ([2]; Scn8a N1768D/+, plasma, 100 mg/kg, Study16162, 100 mg/kg, read-out: Mean [Palsma]): 154 µM | concentration at 2 h ([2]; Scn8a^N1768D/+, plasma, 3 mg/kg, Study15064, 3 mg/kg, read-out: Mean [Palsma]): 1.14 µM | concentration at 2 h ([2]; Scn8a^N1768D/+, plasma, 3 mg/kg, Study16152, 3 mg/kg, read-out: Mean [Palsma]): 4.75 µM | concentration at 2 h ([2]; Scn8a^N1768D/+, plasma, 3 mg/kg, Study16162, 3 mg/kg, read-out: Mean [Palsma]): 7.46 µM | concentration at 2 h ([2]; Scn8a^N1768D/+, plasma, 10 mg/kg, Study15064, 10 mg/kg, read-out: Mean [Palsma]): 5.96 µM | concentration at 2 h ([2]; Scn8a^N1768D/+, plasma, 10 mg/kg, Study16152, 10 mg/kg, read-out: Mean [Palsma]): 15.4 µM | concentration at 2 h ([2]; Scn8a^N1768D/+, plasma, 30 mg/kg, Study16152, 30 mg/kg, read-out: Mean [Palsma]): 48.7 µM | concentration at 2 h ([3]; brain, 3 mg/kg, Study18058, 3 mg/kg, read-out: Mean [Brain]): 0.979 µM | concentration at 2 h ([3]; brain, 10 mg/kg, Study18058, 10 mg/kg, read-out: Mean [Brain]): 4.24 µM | concentration at 2 h ([3]; brain, 20 mg/kg, Study18058, 20 mg/kg, read-out: Mean [Brain]): 11 µM | concentration at 2 h ([3]; brain, 30 mg/kg, Study18068, 30 mg/kg, read-out: Mean [Brain]): 30.4 µM | concentration at 2 h ([3]; brain, 100 mg/kg, Study18068, 100 mg/kg, read-out: Mean [Brain]): 55.5 µM | concentration at 2 h ([3]; brain, 300 mg/kg, Study18085, 300 mg/kg, read-out: Mean [Brain]): 79.9 µM | concentration at 2 h ([3]; plasma, 3 mg/kg, Study18058, 3 mg/kg, read-out: Mean [Palsma]): 0.966 µM | concentration at 2 h ([3]; plasma, 10 mg/kg, Study18058, 10 mg/kg, read-out: Mean [Palsma]): 4.27 µM | concentration at 2 h ([3]; plasma, 20 mg/kg, Study18058, 20 mg/kg, read-out: Mean [Palsma]): 11.3 µM | concentration at 2 h ([3]; plasma, 30 mg/kg, Study18068, 30 mg/kg, read-out: Mean [Palsma]): 24 µM | concentration at 2 h ([3]; plasma, 100 mg/kg, Study18068, 100 mg/kg, read-out: Mean [Palsma]): 42.7 µM | concentration at 2 h ([3]; plasma, 300 mg/kg, Study18085, 300 mg/kg, read-out: Mean [Palsma]): 65.9 µM
